According to patent publication US20220039395A1, “INSECT CONTROL AGENTS” (priority 2018, published 2022):
Entries after “also recorded” stand apart in the source; their conditions may differ. Numbered stars: 1 amine (or outer) side, 2 acyl side, 3 side chain; on linkers, the order of the positions; unused ones are H or OH. Square brackets hold non-standard residues; d marks the D form. Ends that are not written are not given here. Suc = O=C(CCC(=O)[*:2])[*:1]; β3hL = CC(C)C[C@H](N)CC(=O)O; 2Abf = not defined here

Tests used:
Myzus persicae [1] = assay: Desiccation/starvation tolerance assay after peptide microinjection; format: in vivo; details: Myzus persicae, microinjection; for Documented effect on desiccation/starvation mortality: final concentration ×10^−5 M, relative to vehicle control; for LTime50 (h), test / Median ± IQR survival (h), test: ×10^−5 M, desiccation and starvation stress, test group
Experimental: (§1) Neuropeptides were administered to test aphids via microinjection to allow for rapid mass screening of neuropeptide analogue efficacy. For this, native neuropeptides were diluted in double distilled water (DDH2O) to a concentration of 1×10^−5 M. Neuropeptide analogues were diluted in DDH2O to the following concentrations: kinin analogues 1728 (2.5×10^−5 M), 2139 (3.5×10^−5 M), 2139-Ac (3.5×10^−5 M); CAP2b analogues 1895 (3.5×10^−5 M), 1896 (3.5×10^−5 M), 1902 (3.5×10^−5 M), 2089 (3.9×10^−5 M), 2123 (1.0×10^−5 M), 2125 (1.0×10^−5 M), 2129 (2.0×10^−5 M). Once at the desired concentration, neuropeptide solutions were administered to test aphids at an injection volume of 9 nl based on total haemolymph volume, to produce an approximate 1:20 dilution of injection volume to haemolymph. Injections were performed using a pulled glass needle and a Nanoject II Auto-Nanoliter Injector (Drummond Scientific Company, Broomall, Pa.). A vehicle control was set up for each treatment/day of experiments to account for variation in needle pulling. For this, control aphids were injected with 9 nl of DDH2O and subsequently exposed to the same experiments as aphids receiving the neuropeptide treatment. Neuropeptide treated and vehicle control aphids were subsequently used in the stress bioassays detailed below.
(§2) Anholocyclic adults of mixed age of either M. persicae or M. rosae were selected from the stock cultures and treated with a native neuropeptide or neuropeptide analogue via microinjection using the method detailed above. Treated and vehicle control aphids were allowed to recover on excised leaves of the host plant for 1 h before being placed in an empty ventilated microcage (L=4 cm, 0=9.5 cm) at densities of 10 per cage. In total, 30-40 aphids were treated for each neuropeptide treatment group and a further 30-40 for the associated vehicle control group. From the point of placement in the microcage (taken as 0 h), aphid survival was checked every hour during daylight hours and approximately every 4 h during night-time hours until the final aphid died. Survival data were subsequently analysed using a Log-rank (Mantel-Cox) text in GraphPad Prism version 7.0. LTime50 (the time taken to kill 50% of the test population) values were calculated via Probit Analysis in Minitab 17 (Minitab Inc., State College, Pa.).

Macrosiphum rosae = assay: as above; format: in vivo; details: Macrosiphum rosae, microinjection; for Documented effect on desiccation/starvation mortality: final concentration ×10^−5 M, relative to vehicle control; for LTime50 (h), test / Median IQR survival (h), test: ×10^−5 M, desiccation and starvation stress, test group
Experimental: as §1, §2

Myzus persicae [2] = assay: Feeding of aphids with peptides in artificial diet; life span and fecundity; format: in vivo; details: M. persicae on artificial diet containing the peptide; mean ± SE
Experimental: A standard artificial diet for M. persicae was produced as described in Van Emden (2009) and provided the basal diet to which neuropeptide analogues were added for screening purposes. Neuropeptide analogues were diluted individually in the artificial diet to a pre-determined recommended concentration as follows: 1895 (3.5×10^-5 M) and 2019 (2.0×10^-5 M). Feeding apparatus were constructed using a set-up developed by […] et al (2009). For this, a piece of Parafilm was stretched over a Plexiglas ring (h=4 cm, Ø=3 cm) and 100 μl of the artificial diet containing the desired neuropeptide analogue was pipette onto the Parafilm membrane. A second piece of Parafilm, stretched to 4 times the original thickness, was stretched over the original layer, sandwiching the artificial diet between two layers of Parafilm. A strip of Parafilm was wrapped around the circumference of the Plexiglas ring, sealing in the diet. A plastic ring (h=1.2 cm, Ø=3.4 cm) was subsequently placed over the Parafilm layer, creating a walled chamber in which to house test aphids in contact with the Parafilm layer containing the artificial diet. Finally, a small Petri dish (h=1 cm, Ø=3.6 cm), modified for ventilation with net cloth, was placed on top of each feeding apparatus to prevent aphid escape. To obtain aphids for use in experiments, reproducing anholocyclic adults were placed on individual excised leaves of Chinese cabbage at densities of 5 adults per leaf and allowed to reproduce for 24 h. The stem of each excised leaf was held within a 0.5 mL Eppendorf tube containing water via a punctured hole in the Eppendorf lid, and placed individually within a microcage (L=4 cm, Ø=9.5 cm). Following 24 h, adults were removed and resultant first instar nymphs (<1 day old and synchronised in age to within 24 h) retained. Nymphs were allowed to develop on the Chinese cabbage for 5 days. On day 5, (3rd instar) nymphs were transferred onto the artificial diet containing a neuropeptide analogue at densities of 1 per feeding chamber and monitored daily until death. Aphids were transferred to fresh artificial diet (containing neuropeptide analogue) every 5 days. Life history traits recorded include age at first reproduction, number of nymphs produced per 24 h period, and lifespan. From these parameters, lifetime fecundity and daily fecundity were calculated. Control groups were set up involving aphids reared on the host plant, an artificial diet without a neuropeptide analogue, and an artificial diet containing the native CAPA neuropeptide.

Aphids = assay: Feeding with peptides in artificial diet, mortality without other stress; format: in vivo, Myzus persicae; details: for effect on mortality in the absence of additional stressors: no additional stress conditions
Experimental: A standard artificial diet for M. persicae was produced as described in Van Emden (2009) and provided the basal diet to which neuropeptide analogues were added for screening purposes. Neuropeptide analogues were diluted individually in the artificial diet to a pre-determined recommended concentration as follows: 1895 (3.5×10^−5 M) and 2019 (2.0×10^−5 M).
Feeding apparatus were constructed using a set-up developed by Sadeghi et al (2009). For this, a piece of Parafilm was stretched over a Plexiglas ring (h=4 cm, Ø=3 cm) and 100 μl of the artificial diet containing the desired neuropeptide analogue was pipette onto the Parafilm membrane. A second piece of Parafilm, stretched to 4 times the original thickness, was stretched over the original layer, sandwiching the artificial diet between two layers of Parafilm. A strip of Parafilm was wrapped around the circumference of the Plexiglas ring, sealing in the diet. A plastic ring (h=1.2 cm, Ø=3.4 cm) was subsequently placed over the Parafilm layer, creating a walled chamber in which to house test aphids in contact with the Parafilm layer containing the artificial diet. Finally, a small Petri dish (h=1 cm, Ø=3.6 cm), modified for ventilation with net cloth, was placed on top of each feeding apparatus to prevent aphid escape.
To obtain aphids for use in experiments, reproducing anholocyclic adults were placed on individual excised leaves of Chinese cabbage at densities of 5 adults per leaf and allowed to reproduce for 24 h. The stem of each excised leaf was held within a 0.5 mL Eppendorf tube containing water via a punctured hole in the Eppendorf lid, and placed individually within a microcage (L=4 cm, Ø=9.5 cm). Following 24 h, adults were removed and resultant first instar nymphs (<1 day old and synchronised in age to within 24 h) retained. Nymphs were allowed to develop on the Chinese cabbage for 5 days. On day 5, (3rd instar) nymphs were transferred onto the artificial diet containing a neuropeptide analogue at densities of 1 per feeding chamber and monitored daily until death. Aphids were transferred to fresh artificial diet (containing neuropeptide analogue) every 5 days. Life history traits recorded include age at first reproduction, number of nymphs produced per 24 h period, and lifespan. From these parameters, lifetime fecundity and daily fecundity were calculated. Control groups were set up involving aphids reared on the host plant, an artificial diet without a neuropeptide analogue, and an artificial diet containing the native CAPA neuropeptide.
Aphids were reared on artificial diet, alone or supplemented with peptide 2129, 2315, 2316 or 2320. A control group (no test peptide) was reared on a host plant. No other stress conditions were applied.
For peptides 2315, 2316 and 2320, mortality was assessed at 48, 72, 96, 120 and 144 hours. A group of 9 or 10 insects was used for each time point, and all experiments were performed at least 4 times.

Substance	Documented effect on desiccation/starvation mortality (Myzus persicae [1])	LTime50 (h), test (Myzus persicae [1])	Median ± IQR survival (h), test (Myzus persicae [1])	Documented effect on desiccation/starvation mortality (Macrosiphum rosae)	LTime50 (h), test (Macrosiphum rosae)	Median IQR survival (h), test (Macrosiphum rosae)	also measured
2Abf-Suc-FTPRI-NH2 ({2Abf-Suc}-FTPRI-NH2; reading uncertain; also: printed as 2Abf-Suc-FTPRI-NH2) [compound 1896]	No effect	22.2 | 24.8 h	24.0 ± 0 9.0 | 25.0 ± 10.5 h	No effect	28.9 | 24.7 h	27.0 ± 17.3 | 23.0 ± 18.5 h	–
GANMGLYAFPRVamide (GANMGLYAFPRV-NH2) [Native Capa, reference compound]	–	–	–	–	–	–	Age at 1st reproduction (Myzus persicae [2]): 11.2 ± 0.2 days; Ave. daily fecundity (Myzus persicae [2]): 1.6 ± 0.1 nymphs; Days as reproducing adult (Myzus persicae [2]): 7.6 ± 0.6; Life span (Myzus persicae [2]): 21.3 ± 0.7 days; Lifetime fecundity (Myzus persicae [2]): 12.0 ± 1.2 nymphs
2Abf-Suc-FT[Hyp]RV-NH2 [compound 2123]	No effect	24.3 | 21.1 h	25.0 ± 13.5 | 21.0 ± 13.5 h	No effect	21.6 | 19.1 h	24.0 ± 11.0 | 16.0 ± 18.0 h	–
[Aib]FF[Aib]WG-NH2 [compound 1728, reference compound]	No effect	18.3 | 25.0 h	22.0 ± 16.5 | 26.0 ± 23.5 h	No effect	31.7 | 31.6 h	29.5 ± 22.0 | 24.0 ± 28.5 h	–
FF[Aib]WG-NH2 [compound 2139, reference compound]	non-significant survival curves; also recorded: No effect	18.3 | 22.4 h	22.0 ± 16.5 | 25.0 ± 21.0 h	non-significant survival curves; also recorded: No effect	31.7 | 29.8 h	29.5 ± 22.0 | 27.0 ± 26.0 h	–
2Abf-Suc-FKPRL-NH2 ({2Abf-Suc}-FKPRL-NH2; reading uncertain; also: printed as 2Abf-Suc-FKPRL-NH2) [compound 1902]	No effect	22.2 | 21.8 h	24.0 ± 0 9.0 | 23.5 ± 7.0 h	No effect	28.9 | 26.4 h	27.0 ± 17.3 | 25.0 ± 10.0 h	–
Native Kinin: native kinin neuropeptide based on the kinin structure of Drosophila melanogaster, synthesized by Cambridge Peptides (NSVVLGKKQRFHSWG; ends and bridges not checked) [reference compound]	–	–	–	–	–	–	Age at 1st reproduction (Myzus persicae [2]): 11.1 ± 0.5 days; Ave. daily fecundity (Myzus persicae [2]): 1.6 ± 0.2 nymphs; Days as reproducing adult (Myzus persicae [2]): 5.9 ± 1.0; Life span (Myzus persicae [2]): 18.8 ± 1.3 days; Lifetime fecundity (Myzus persicae [2]): 9.7 ± 1.9 nymphs
2Abf-Suc-FTPRV-NH2 ({2Abf-Suc}-FTPRV-NH2; reading uncertain; also: printed as 2Abf-Suc-FTPRV-NH2) [compound 2089]	No effect	10.9 | 13.0 h	11.0 ± 12.0 | 16.5 ± 10.3 h	No effect	23.2 | 16.4 h	23.0 ± 17.0 | 17.0 ± 21.3 h	–
ASGL[βhL]AFPRV-NH2 (ASGL[β3hL]AFPRV-NH2; N-terminus assumed; SMILES CC(C)C[C@@H](CC(=O)N[C@@H](C)C(=O)N[C@@H](Cc1ccccc1)C(=O)N1CCC[C@H]1C(=O)N[C@@H](CCCNC(=N)N)C(=O)N[C@H](C(N)=O)C(C)C)NC(=O)[C@H](CC(C)C)NC(=O)CNC(=O)[C@H](CO)NC(=O)[C@H](C)N) [compound 2316]	–	–	–	–	–	–	Dead (48 h) (Aphids; artificial diet supplemented with peptide, 48 h): 86.0%; Dead (72 h) (Aphids; artificial diet supplemented with peptide, 72 h): 88.0%; Dead (96 h) (Aphids; artificial diet supplemented with peptide, 96 h): 90.0%; Dead (120 h) (Aphids; artificial diet supplemented with peptide, 120 h): 92.0%; Dead (144 h) (Aphids; artificial diet supplemented with peptide, 144 h): 92.0%; effect on mortality in the absence of additional stressors (Aphids): increase mortality in the absence of additional stressors; effect on mortality in the absence of additional stressors (Aphids; listed as 2136): increase mortality in the absence of additional stress conditions
